Results published in patent publication US20240336868A1, “COMPOSITIONS COMPRISING ADAMANTYL ESTER-CONTAINING COMPOUNDS” (The Procter & Gamble Company, priority 2023, published 2024).

Type: physicochemical
Conditions: for Head-space: headspace above about 2E+06 ng/mL solution in isopropyl myristate (IPM); for Head-space / Air/IPM partition coef: 30° C., average of three replicates; for Air/IPM partition coef: in isopropyl myristate (IPM)
Method: Perfume headspace data is collected for various materials according to the method provided below.
The partition coefficients are calculated by determining the amount of PRM in the headspace above a solution with a known concentration using a GC/FID-MS (Agilent 7890 and 5977A MSD) with a thermal desorption unit (Gerstel MPS2) and Dynamic Headspace Sampler (Gerstel DHS). This technique allows for automated headspace collections using the MultiPurposeSampler (MPS). The PRMs of interest are prepared at a known concentration in isopropyl myristate (IPM) or propylene glycol monomethyl ether (DPM), and 1 mL is pipetted in a 20 mL headspace vial.
DHS Conditions: The sample is tempered in the unit at 30° C. A helium stream at 10 mls/min purges 20 mL of headspace containing the analytes above the sample onto the sorbent tube (TDU) containing 25 mg of TenaxTA 35/60 (Restek cat #25701).
TDU conditions: The sorbent tube is desorbed with a program starting at 30° C. solvent vent for 2 min then ramped at 720° C./min to 270° C. and held for 8 min. The analytes are refocused on a glass bead liner at −60° C. then desorbed at a rate of 12° C./s to 270° C. onto the GC column.
GC/MS conditions: Agilent 122-5532 UI column of 30 m×250 μm×0.25 μm and a flow rate of 1.5 mL/min is utilized. A temperature program of 50° C. to 280° C. with a 2 min hold and a ramp rate of 12° C./min is suitable. Scan or SIM mode MSD parameters with a solvent delay for the DPM are applied to achieve appropriate detection.
Analytical standards can be obtained from AK Scientific, Inc., Union City, CA 94587, USA. A stock solution is prepared at approximately 0.5 g/L. The stock solution is then diluted to 4 to 5 concentrations ranging from approximately 0.05 g/L to 0.00005 g/L. These standard solutions are then analyzed by GC/MS. This analysis is performed by using the same TDU desorption and GC/MS conditions described above with a 1 μL liquid injection onto the TDU tube instead of the DHS collection. The amount injected on column and the area responses of the target m/z are utilized to create a calibration plot with a linear fit.
Quantification of the headspace is performed by the PRM target m/z area response of the perfume component and the linear equation of the calibration plot.
Perfume headspace data is collected for various materials according to the Headspace Method provided above in the Test Methods section. The Air/Solvent partition coefficients are determined and indexed accordingly (e.g., where the partition coefficient for OTNE is set at 1.00).
Results for 2-adamantyl propanoate, 2-adamantyl acetate, and 2-methyl-2-adamantyl acetate in isopropyl myristate (IPM) are provided below in Table 1.

| OTNE Indexed Air/IPM partition coefficient | Head-space | Air/IPM partition coef | Compound |
| --- | --- | --- | --- |
| 5.47 | 0.1182 ng/mL | 5.71E−08 ng/mL in air per ng/mL in IPM | CCC(=O)OC1C2CC3CC(C2)CC1C3 (stereo not drawn) [2-adamantyl propanoate] |
| 8.67 | 0.1874 ng/mL | 9.05E−08 ng/mL in air per ng/mL in IPM | CC(=O)OC1(C)C2CC3CC(C2)CC1C3 (stereo not drawn) [2-methyl-2-adamantyl acetate] |
| 8.30 | 0.1793 ng/mL | 8.66E−08 ng/mL in air per ng/mL in IPM | CC(=O)OC1C2CC3CC(C2)CC1C3 (stereo not drawn) [2-adamantyl acetate] |
| 1.00 | 0.0216 ng/mL | 1.04E−08 ng/mL in air per ng/mL in IPM | CC(=O)C1(C)CC2=C(CCCC2(C)C)CC1C (stereo not drawn) [OTNE, 1-(1,2,3,4,5,6,7,8-Octahydro-2,3,8,8-tetramethyl-2-naphthalenyl) ethanone, reference compound] |
